We go through 19 compounds from ChEMBL document CHEMBL1201862, “PubChem BioAssay data set” (2004).

The target of experiment [1] is G-protein coupled receptor 55 (Homo sapiens, UniProt Q9Y2T6). The experiment in a line: GPR55 antagonists blocking LPI-driven arrestin recruitment, primary screen, imaging, U2OS, beta-arrestin-GFP, LPI agonist (AID 2013).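 Note: antagonist potency measured as reduced agonist-driven arrestin aggregation.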 The class given is functional. In general terms: Arrestin recruitment assays detect the binding of arrestin to an activated receptor.
G-protein coupled receptor 55, sequence (Q9Y2T6 whole entry): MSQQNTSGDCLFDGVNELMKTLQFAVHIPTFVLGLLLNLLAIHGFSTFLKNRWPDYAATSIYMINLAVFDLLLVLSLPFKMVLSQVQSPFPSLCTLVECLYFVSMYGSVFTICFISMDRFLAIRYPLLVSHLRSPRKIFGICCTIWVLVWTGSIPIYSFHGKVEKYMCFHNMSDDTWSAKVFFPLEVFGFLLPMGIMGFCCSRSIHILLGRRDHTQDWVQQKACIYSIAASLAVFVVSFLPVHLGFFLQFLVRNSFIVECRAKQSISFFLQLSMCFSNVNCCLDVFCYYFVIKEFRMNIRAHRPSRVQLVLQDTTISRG
For experiment [2], the system named is HEK293. The experiment can be described thus: NOD1 signaling inhibitors, primary screen, cell-based, luminescence, uHTS (AID 1578). The class given is functional. Particulars: Homo sapiens.
For experiment [3], the system named is Streptococcus sp. 'group A'. The experiment in a line: growth inhibition of control SK(-) GAS strain, dose response, counter-screen for streptokinase expression inhibitor project, luminescence, kanamycin, BacTiterGlo, confirmation (AID 1900). The format is functional, organism-based.
Experiment [4] has as its system HEK293. The experiment can be described thus: cells. The format is functional, cell-based. The note with it: Homo sapiens.
The next experiment deals with T1, Streptokinase A (Streptococcus pyogenes serotype M1, UniProt P10520).
T1 sequence (P10520 whole entry): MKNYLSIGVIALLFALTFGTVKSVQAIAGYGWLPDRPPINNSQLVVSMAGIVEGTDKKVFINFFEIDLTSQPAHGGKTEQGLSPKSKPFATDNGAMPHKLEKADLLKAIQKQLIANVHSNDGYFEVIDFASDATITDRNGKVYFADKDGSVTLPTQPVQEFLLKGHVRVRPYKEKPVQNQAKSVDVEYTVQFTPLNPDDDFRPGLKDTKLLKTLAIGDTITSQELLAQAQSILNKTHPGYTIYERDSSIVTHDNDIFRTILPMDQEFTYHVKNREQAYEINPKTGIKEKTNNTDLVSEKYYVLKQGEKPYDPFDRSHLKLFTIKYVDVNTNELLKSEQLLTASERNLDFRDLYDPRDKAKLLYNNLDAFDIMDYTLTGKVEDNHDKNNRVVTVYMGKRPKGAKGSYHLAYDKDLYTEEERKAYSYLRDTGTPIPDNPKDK
The experiment in a line: S. pyogenes streptokinase expression inhibitors, potency, dose response, plasminogen activation absorbance, OD405 (AID 1914).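 Note: secreted streptokinase activity via plasminogen activation per viability signal from cell pellet.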 The format is functional, Streptococcus pyogenes M1 GAS.

The test system of experiment [5] is HEK293. The experiment can be described thus: cells. Particulars: Homo sapiens. The class given is functional, cell-based. The source holds these as a separate data set.
Experiment [6] in a line: cytotoxicity in HPDE-C7 cells, cell-based, fluorescence, HTS (AID 430). The class given is functional. The note with it: Homo sapiens.
The test system of experiment [7] is HEK293. The experiment in a line: NOD2 signaling inhibitors in MDP-stimulated cells, cell-based, uHTS, luminescence (AID 2001). The class given is functional. Particulars: Homo sapiens.
Experiment [8] in a line: cytotoxicity in KRAS-transformed pancreatic duct cells, primary screen, cell-based, fluorescence, HTS (AID 431). The class given is functional. Particulars: Homo sapiens.
In a further experiment the test system is Streptococcus. The experiment can be described thus: Group A Streptococcus viability loss, dose response, counter-screen for streptokinase expression inhibitor project, luminescence, BacTiterGlo (AID 1915).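 Note: potency for reduction of bacterial viability or growth.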 The format is functional, organism-based. Background: A counterscreen serves to expose hits that act by an unwanted route or on another target.
The next experiment concerns Escherichia coli. The experiment in a line: microbe, parasite or virus in culture.
The nature of experiment [9]: A549 cell cytotoxicity, dose response, cytotoxicity control, plate reader, cherry-pick, antagonist series (AID 743412). The format is functional, cell-based.
Experiment [10] is described as follows: MC4R antagonists, dose response, counter-screen for LGR2 antagonist project, cell-based, plate reader, cherry pick (AID 743444).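 Note: transfected HEK 293 cells stimulated with alpha-MSH peptide; potency of inhibitors of the alpha-MSH evoked signal.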 The class given is functional.
In another experiment the target is T2, Bcl-2-related protein A1 (Mus musculus, UniProt Q07440).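 Note: confirmatory dose–response counterscreen on Bfl-1, used to check hits from a UBC13 polyubiquitin inhibitor campaign.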
T2 sequence (Q07440 whole entry): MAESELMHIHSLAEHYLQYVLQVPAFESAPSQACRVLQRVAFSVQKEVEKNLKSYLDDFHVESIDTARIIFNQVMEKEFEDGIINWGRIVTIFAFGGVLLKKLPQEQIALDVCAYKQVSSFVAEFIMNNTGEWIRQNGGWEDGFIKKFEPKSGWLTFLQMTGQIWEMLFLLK
The class given is functional.

The target of experiment [11] is T3, Ubiquitin-conjugating enzyme E2 N (Homo sapiens, UniProt P61088).
T3 sequence (P61088 whole entry): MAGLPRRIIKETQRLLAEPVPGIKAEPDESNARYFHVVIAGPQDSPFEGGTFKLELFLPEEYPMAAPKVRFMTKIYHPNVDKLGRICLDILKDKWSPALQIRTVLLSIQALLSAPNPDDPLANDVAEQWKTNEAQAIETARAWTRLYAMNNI
The format is functional.

Experiment [12] addresses T3, Ubiquitin-conjugating enzyme E2 N. The format is functional. The source holds these as a separate data set.
Experiment [13] in a line: Concentration-dependent survival of SW480 colon cancer line, luminescence detection with CellTiter-Glo, half-maximal inhibitory concentration (AID 1117338). The format is functional. On the technique in general: In ATP-based viability assays light output follows the ATP content of the culture.
A short description of experiment [14]: RKO cell viability reduction, dose response, CellTiter-Glo luminescence (AID 1117322). The format is functional.
Experiment [15] is described as follows: cytotoxicity toward HCT116 cells – cell-based, CellTiter-Glo luminescence, IC50, dose response (AID 1117332). The format is functional. Particulars: HCT-116.
A short description of experiment [16]: SNU-C1 cell viability reduction, dose response, CellTiter-Glo luminescence (AID 1117323). The class given is functional, cell-based.
Experiment [17] in a line: cytotoxicity toward Colo320 cells – cell-based, CellTiter-Glo luminescence, IC50, dose response (AID 1117334). The class given is functional. Particulars: COLO 320.
The nature of experiment [18]: cytotoxicity toward HT-29 cells – cell-based, CellTiter-Glo luminescence, IC50, dose response (AID 1117330). The format is functional.
A short description of experiment [19]: CellTiter-Glo luminescent dose response of DLD-1 viability loss (AID 1117352). The class given is functional.
The nature of experiment [20]: HCT116 cell viability decrease, GSK3B pretreatment – CellTiter-Glo, IC50, dose response (AID 1117339). The note with it: HCT-116. The format is functional.
Experiment [21] deals with T4, High affinity choline transporter 1 (Homo sapiens, UniProt Q9GZV3).
T4 sequence (Q9GZV3 whole entry): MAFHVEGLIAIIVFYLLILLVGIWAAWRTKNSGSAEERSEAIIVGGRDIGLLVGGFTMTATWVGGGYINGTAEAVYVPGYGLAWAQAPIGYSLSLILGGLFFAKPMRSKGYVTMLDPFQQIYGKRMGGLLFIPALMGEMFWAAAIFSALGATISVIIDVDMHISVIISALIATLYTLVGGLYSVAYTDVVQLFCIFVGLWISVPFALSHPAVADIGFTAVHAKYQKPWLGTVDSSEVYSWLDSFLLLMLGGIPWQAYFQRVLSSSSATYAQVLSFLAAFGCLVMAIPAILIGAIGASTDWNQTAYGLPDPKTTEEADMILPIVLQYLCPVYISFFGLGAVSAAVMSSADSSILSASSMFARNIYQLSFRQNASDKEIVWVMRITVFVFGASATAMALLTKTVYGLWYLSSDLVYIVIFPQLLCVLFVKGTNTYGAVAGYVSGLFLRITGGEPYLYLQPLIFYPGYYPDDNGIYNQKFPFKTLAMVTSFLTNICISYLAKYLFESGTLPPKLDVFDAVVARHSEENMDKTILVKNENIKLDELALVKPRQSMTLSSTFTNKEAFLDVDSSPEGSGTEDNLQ
The experiment can be described thus: CHT inhibitors, dose response, cell-based, 5-point CRC, membrane potential dye (AID 504840). The class given is functional.

The nature of experiment [22]: cells. The class given is functional, cell-based.
The nature of experiment [23]: cells. The format is functional, cell-based. The source holds these as a separate data set.
Experiment [24] in a line: THP-1 cell cytotoxicity, dose response, cytotoxicity control for Vif-APOBEC3G degradation inhibitor project, THP-1 cells (AID 1117359). The format is functional. The note with it: Human immunodeficiency virus 1, THP-1.

Active and inactive are the calls of the source. Some results are limits rather than exact numbers.

As a reminder, the IC50 is the concentration at which inhibition is half-maximal. As to `CCCSc1ncc(Cl)c(C(=O)Nc2ccc(S(=O)(=O)N3CC(C)OC(C)C3)cc2)n1` (stereo not given), the IC50 in experiment [1] is 5.75 µM (active).

For `O=C(NC(=S)NC1CCN(Cc2ccccc2)CC1)c1ccc(F)cc1`, in [1], the IC50 is 4.67 µM (active).

A word on the EC50: it is the concentration that produces a half-maximal response. As for `Cc1conc1NC(c1cccs1)c1ccc2cccnc2c1O` (stereo not given), the EC50 is > 20 µM (inactive) in the experiment on HEK293 [2]; 1.93 µM (active) in experiment [3]; > 150 µM (not active) on Streptokinase A; 10.2 µM (active) in experiment [6]; 5.68 µM (active) in experiment [8]; 7.33 µM (active) in the experiment with Streptococcus. Besides, the IC50 in the experiment on HEK293 [4] was 4.74 µM (active); in the experiment with HEK293 [5], > 20 µM (inactive); in the experiment on HEK293 [7], 6.1 µM (active).

By AC50 is commonly meant the concentration giving half of the maximal activity seen. Turning to `Cc1ccc(NC(=O)COC(=O)CCC(=O)c2cccs2)c(C)c1`, the AC50 in the experiment on Escherichia coli was > 150 µM (inactive).

As to `O=C(C1CC(=O)N(C2CCCC2)C1)N1CCN(c2ccc(F)cc2)CC1` (stereo not given), the AC50 with Escherichia coli is 31.8 µM (active).

For `COc1ccc(S(=O)(=O)Nc2ccc3c(c2)C(=O)N([C@@H](C)CO)C[C@@H](C)[C@H](CN(C)C(=O)Nc2cccc4ccccc24)OCCCC[C@H](C)O3)cc1`, the results for the AC50 in [9] and in [10] were > 52 µM (inactive) and 2.05 µM (active), respectively.

`C#CCOCCOCCOCCNc1nc(N2CCN(C(=O)[C@H](CCCCN)n3cc(CN)nn3)CC2)nc(N2CCN(C(=O)[C@H](CCCN=C(N)N)n3cc(C(N)[C@H](C)CC)nn3)CC2)n1` (stereo not given in full): the IC50 is > 20 µM (inactive) on Bcl-2-related protein A1, 12 µM (active) in [11] and 7.94 µM (active) in experiment [12].

Take `COc1ccccc1NC(=O)c1c(/N=C/c2ccccc2O)cnn1C`: the IC50 at Bcl-2-related protein A1 was > 20 µM (inactive); in experiment [11], 10.5 µM (active); in [12] it was 10.4 µM (active).

On to `COc1ccc(CCN=C(N)NS(=O)(=O)c2cccs2)cc1`, for which, in the experiment with Escherichia coli, the half-maximal activity concentration (AC50) was 112 µM (active).

As for `COc1ccc(C2c3ccc(O)cc3Oc3ncn(CC(C)C)c(=N)c32)cc1` (stereo not given), the IC50 in [1] was 2.27 µM (active).

Regarding `C=CC(C)(O)CCC=C(C)CCC=C(C)C` (stereo not given), the IC50 in experiment [13] is > 20 µM (inactive); in experiment [14], > 20 µM (inactive); in [15] it was > 20 µM (inactive); in experiment [16], > 20 µM (inactive); in [17], 10.3 µM (inactive); in experiment [18], > 20 µM (inactive). The IC50 in experiment [19] and in experiment [20] was > 20 µM (inactive) each time.

With `O=C(N/N=C/c1ccsc1)c1c[nH]c2ccccc12`, the IC50 in [21] was 3.8 µM (active).

In the case of `CC(C)c1ccc(NC(=O)C[n+]2ccn(C3=C([O-])c4ccccc4C3=O)c2)cc1`, the IC50 at Bcl-2-related protein A1 is > 20 µM (inactive); in experiment [11], 11.8 µM (active); in experiment [12] it was 17.8 µM (active).

Take `Cc1c(NC(=O)CCCCCN2C(=O)c3ccccc3C2=O)c(=O)n(-c2ccccc2)n1C`: the IC50 at Bcl-2-related protein A1 was > 20 µM (inactive); in experiment [11], 1.23 µM (active); in [12], 0.709 µM (active).

`CCCOC(=O)c1ccc(Oc2c(C)n[nH]c2-c2ccc(OC)cc2O)cc1`: the EC50 is 14.1 µM (active) in [3]; > 150 µM (not active) on Streptokinase A; 12.2 µM (active) in experiment [6]; 6.36 µM (active) in experiment [8]; 28.5 µM (active) in the experiment with Streptococcus.

In the case of `Cc1ccc(-c2nnc(OCC3CCCO3)c3ccccc23)cc1` (stereo not given), the IC50 in experiment [21] is 14.5 µM (active).

`Cc1sc2ncnc(Sc3nnnn3-c3ccc(Cl)cc3)c2c1C`: the EC50 in the experiment “cells [22]” is > 350 µM (not active); in [6], 4.61 µM (active); in experiment [8], 5.19 µM (active); in the experiment “cells [23]”, > 350 µM (not active).

Regarding `CC1CCN(S(=O)(=O)c2ccc3c(c2)N(CC(=O)NCCCN2CCCCC2C)C(=O)CS3)CC1` (stereo not given), the IC50 in experiment [21] was 13 µM (active).

For orientation: CC50 means the concentration at which the toxic effect on the cells reaches its halfway point. As for `Clc1ccc(CSCCc2ccncc2)cc1`, in experiment [24], the CC50 was > 40 µM (active).
